Patent US20100273652A1 (priority 2009, published 2010)

How the values were obtained:
Format in all cases: cell-based
[1] = system: Fusarium graminearum
[2] = system: DON/Acetyl-DON production of Fusarium graminearum
[3] = system: Fusarium proliferatum; test: Growth inhibition of Fusarium proliferatum (OD620); conditions: OD620 at start and after 5 days
[4] = system: fumonisin FB1 production of Fusarium proliferatum; test: Inhibition of fumonisin FB1 production of Fusarium proliferatum; conditions: 5 days, 20° C., vs control without compound

| SMILES | % inhibition at 50 μM Fusarium graminearum (growth) [1] [%] | % inhibition at 50 μM DON/AcDON [2] [%] | % inhibition at 50 μM Fusarium proliferatum (growth) [3] [%] | % inhibition at 50 μM FB1 [4] [%] |
| --- | --- | --- | --- | --- |
| C=C=Cn1c(-c2ccncc2)c(-c2ccc(F)cc2)c2ncccc21 [Example 15] | 33 | 44 | 37 | – |
| Nc1cc(-c2[nH]c3cccnc3c2-c2ccc(F)cc2)ccn1 [Example 4] | – | – | 31 | 45 |
